Measurements: the Deep4Chem optical property database
Values belong to the compound of their own block, whether it stands above or below them.

Test: solvent given as SMILES

SMILES: CN(C)c1ccc(/C=C/C=C2\CC/C(=C\c3ccc(N(C)C)cc3)C2=O)cc1
emission maximum (in C1CCOC1): 649 nm
emission maximum (in CC#N): 666 nm
emission maximum (in CC(C)=O): 650 nm
emission maximum (in CC(C)O): 687 nm
emission maximum (in CCCCCC): 504 nm
emission maximum (in CCCCO): 712 nm
emission maximum (in CCCCOC(C)=O): 581 nm
emission maximum (in CCCO): 717 nm
emission maximum (in CCO): 725 nm
emission maximum (in CCOC(=O)c1ccccc1): 604 nm
emission maximum (in CCOC(C)=O): 591 nm
emission maximum (in CCOCC): 546 nm
emission maximum (in CN(C)C=O): 656 nm
emission maximum (in CO): 737 nm
emission maximum (in CS(C)=O): 676 nm
emission maximum (in Cc1ccccc1): 530 nm
emission maximum (in ClC(Cl)(Cl)Cl): 515 nm
emission maximum (in ClC(Cl)Cl): 623 nm
emission maximum (in ClCCl): 635 nm
emission maximum (in Clc1ccccc1Cl): 608 nm
emission maximum (in S=C=S): 540 nm
emission maximum (in c1ccccc1): 532 nm
emission maximum (in c1ccncc1): 643 nm

SMILES: CCOC(=O)CN1C(=O)C2=C(c3ccc(C#N)cc3)N(CC(=O)OCC)C(=O)C2=C1c1ccccc1
emission maximum (in CC#N): 538 nm
emission maximum (in CS(C)=O): 547 nm
emission maximum (in Cc1ccccc1): 544 nm

SMILES: CCCCCCCCN1C(=O)c2ccc3c4c(-c5ccc6c7ccccc7n(-c7ccccc7)c6c5)cc5c6c(cc(-c7ccc8c9ccccc9n(-c9ccccc9)c8c7)c(c7ccc(c2c37)C1=O)c64)C(=O)N(CCCCCCCC)C5=O
emission maximum (in ClC(Cl)Cl): 644 nm

SMILES: N#Cc1cc(-n2c3ccccc3c3ncccc32)c(-n2c3ccccc3c3ncccc32)cc1C#N
emission maximum (in CC#N): 520.47 nm
emission maximum (in CCCCCC): 443.72 nm
emission maximum (in Cc1ccccc1): 450.7 nm
emission maximum (in ClCCl): 476.51 nm
emission maximum (in c1cc(-n2c3ccccc3c3ccccc32)cc(-n2c3ccccc3c3ccccc32)c1): 477.27 nm

SMILES: Cc1ccc(/C2=c3\cc/c(o3)=C(\c3ccc(C)cc3)c3ccc([nH]3)-c3ccc4n3[B-](F)(F)[N+]3=C(C=CC3=C4c3cccs3)c3ccc2[nH]3)cc1
emission maximum (in ClC(Cl)Cl): 722 nm

SMILES: COc1ccccc1-c1nc2c3cccnc3c3ncccc3c2n1-c1ccccc1
emission maximum (in Cc1ccccc1): 396 nm

SMILES: CC1(C)Nc2cc(Cl)ccc2-c2[nH]c3ccccc3c(=O)c21
emission maximum (in C1CCOC1): 474 nm
emission maximum (in CC#N): 496 nm
emission maximum (in CCCCO): 505 nm
emission maximum (in CCCO): 505 nm
emission maximum (in CCO): 506 nm
emission maximum (in CCOC(C)=O): 482 nm
emission maximum (in CN(C)C=O): 493 nm
emission maximum (in CO): 513 nm
emission maximum (in CS(C)=O): 494 nm
emission maximum (in Cc1ccccc1): 460 nm
emission maximum (in ClC(Cl)(Cl)Cl): 451 nm
emission maximum (in ClCCl): 473 nm
emission maximum (in O): 536 nm
emission maximum (in c1ccccc1): 462 nm

SMILES: Oc1cccc(/N=C/c2ccccc2Oc2ccccc2)c1
emission maximum (in C1CCCCC1): 402 nm
emission maximum (in C1COCCO1): 406 nm
emission maximum (in CC#N): 395 nm
emission maximum (in CC(C)=O): 415 nm
emission maximum (in CC(C)CO): 387 nm
emission maximum (in CC(C)O): 406 nm
emission maximum (in CCCCC): 403 nm
emission maximum (in CCCCCCCCO): 410 nm
emission maximum (in CCCCCCCO): 410 nm
emission maximum (in CCCCCCO): 400 nm
emission maximum (in CCCCO): 416 nm
emission maximum (in CCCCOC(C)=O): 404 nm
emission maximum (in CCCO): 395 nm
emission maximum (in CCOC(C)=O): 420 nm
emission maximum (in CCOCC): 404 nm
emission maximum (in CO): 380 nm
emission maximum (in CS(C)=O): 396 nm
emission maximum (in Cc1ccccc1): 412 nm
emission maximum (in Cc1ccccc1C): 403 nm
emission maximum (in ClC(Cl)Cl): 415 nm
emission maximum (in ClCCl): 407 nm
emission maximum (in N#Cc1ccccc1): 385 nm
emission maximum (in OCCO): 418 nm
emission maximum (in c1ccccc1): 414 nm

SMILES: c1ccc(C(=C(c2ccccc2)c2ccc(-c3ccc(-c4nc5c(-c6ccc(-c7ccc(C(=C(c8ccccc8)c8ccccc8)c8ccccc8)cc7)cc6)sc(-c6ccc(-c7ccc(C(=C(c8ccccc8)c8ccccc8)c8ccccc8)cc7)cc6)c5nc4-c4ccc(-c5ccc(C(=C(c6ccccc6)c6ccccc6)c6ccccc6)cc5)cc4)cc3)cc2)c2ccccc2)cc1
emission maximum (in Cc1ccccc1): 637 nm
emission maximum (in ClCCl): 647 nm

SMILES: c1ccc2c(c1)Sc1ccccc1N2c1ccc2c(ccc3nc4ccc5cc(N6c7ccccc7Sc7ccccc76)ccc5c4nc32)c1
emission maximum (in C1CCCCC1): 543 nm
emission maximum (in Cc1ccccc1): 657 nm

SMILES: CC1(C)c2ccccc2N(c2ccc(-c3ccc4c(c3)C(=O)c3ccc(-c5ccc(N6c7ccccc7C(C)(C)c7ccccc76)cc5)cc3C4=O)cc2)c2ccccc21
emission maximum (in Cc1ccccc1): 609 nm
emission maximum (in c1ccc2c(c1)c1ccccc1n2-c1ccc(-c2ccc(-n3c4ccccc4c4ccccc43)cc2)cc1): 564 nm

SMILES: CCC1(CC)c2cc(C#Cc3cc(C#Cc4ccc5c(c4)C(CC)(CC)c4cc(N(c6ccccc6)c6ccccc6)ccc4-5)c4ccc5c(C#Cc6ccc7c(c6)C(CC)(CC)c6cc(N(c8ccccc8)c8ccccc8)ccc6-7)cc(C#Cc6ccc7c(c6)C(CC)(CC)c6cc(N(c8ccccc8)c8ccccc8)ccc6-7)c6ccc3c4c65)ccc2-c2ccc(N(c3ccccc3)c3ccccc3)cc21
emission maximum (in C1CCCCC1): 524 nm
emission maximum (in C1CCOC1): 552 nm
emission maximum (in CCOC(C)=O): 545 nm
emission maximum (in CN(C)C=O): 557 nm
emission maximum (in Cc1ccccc1): 535 nm
emission maximum (in ClC(Cl)Cl): 545 nm
emission maximum (in ClCCl): 567 nm

SMILES: c1ccc(-c2nc(-c3ccc(N4c5ccccc5C(c5ccccc5)(c5ccccc5)c5ccccc54)cc3)cc(-c3ccc(N4c5ccccc5C(c5ccccc5)(c5ccccc5)c5ccccc54)cc3)n2)cc1
emission maximum (in Cc1ccccc1): 456 nm
emission maximum (in O=P(c1ccccc1)(c1ccccc1)c1ccc2oc3ccc(P(=O)(c4ccccc4)c4ccccc4)cc3c2c1): 462 nm

SMILES: C1=C2c3cc4ccccc4cc3C3=[N+]2[B-]2(Oc4ccccc43)Oc3ccccc3-c3c4cc5ccccc5cc4c1n32 (stereo not given)
emission maximum (in C1CCOC1): 832 nm

SMILES: Cc1ccccc1N(c1ccccc1C)c1ccc2ccc3c(N(c4ccccc4C)c4ccccc4C)ccc4ccc1c2c43
emission maximum (in Cc1ccccc1): 452 nm

SMILES: N#Cc1c(-n2c3ccc(Br)cc3c3cc(Br)ccc32)c(C#N)c(-n2c3ccc(Br)cc3c3cc(Br)ccc32)c(-n2c3ccc(Br)cc3c3cc(Br)ccc32)c1-n1c2ccc(Br)cc2c2cc(Br)ccc21
emission maximum (in Cc1ccccc1): 521 nm

SMILES: CCC1(CC)c2cc(B(c3c(C)cc(C)cc3C)c3c(C)cc(C)cc3C)ccc2-c2ccc(N(c3ccccc3)c3ccc4c(c3)C(CC)(CC)c3cc(B(c5c(C)cc(C)cc5C)c5c(C)cc(C)cc5C)ccc3-4)cc21
emission maximum (in C1CCOC1): 490 nm
emission maximum (in CC#N): 538 nm
emission maximum (in CC(C)=O): 515 nm
emission maximum (in CCCCCC): 445 nm
emission maximum (in CN(C)C=O): 533 nm
emission maximum (in Cc1ccccc1): 461 nm
emission maximum (in ClC(Cl)Cl): 477 nm

Second part, the compound after the results:

emission maximum (in ClC(Cl)Cl): 423 nm
SMILES: CCC(CC)n1c2ccccc2c2cc3c(cc21)c1ccccc1n3C(CC)CC

emission maximum (in C1CCCCC1): 389 nm
emission maximum (in CC#N): 466 nm
emission maximum (in CC(C)O): 477.17 nm
emission maximum (in CO): 472 nm
emission maximum (in CS(C)=O): 465.05 nm
emission maximum (in ClC(Cl)Cl): 437 nm
emission maximum (in c1ccccc1): 425.86 nm
SMILES: CN(C)c1ccc2nc(-c3ccccc3)sc2c1Cl

emission maximum (in ClCCl): 534 nm
SMILES: [O-][n+]1c(/C=C/c2cccs2)nc(N2CCOCC2)c2c1CCCC2

emission maximum (in ClCCl): 558 nm
SMILES: CC1=C(I)C(C)=[N+]2C1=C(c1c(-c3ccccn3)nc3ccccn13)c1c(C)cc(C)n1[B-]2(F)F

emission maximum (in CN(C)C=O): 441 nm
SMILES: Cc1nc2cccc(-c3nc4ccccc4[nH]3)c2c(=O)[nH]1

emission maximum (in CC#N): 391 nm
SMILES: COc1ccc2c(c1)nc(-c1ccccc1)n2-c1ccccc1

emission maximum (in ClC(Cl)Cl): 601 nm
SMILES: Cc1cc(C)c(C2=C3C=CC(c4cccc5ccccc45)=[N+]3[B-](F)(F)n3c2ccc3-c2cccc3ccccc23)c(C)c1

emission maximum (in C1COCCO1): 373 nm
emission maximum (in CC#N): 378 nm
emission maximum (in CO): 389 nm
emission maximum (in ClCCl): 375 nm
SMILES: CN(C)c1nc(N)nc2c1nc(C#N)n2Cc1ccccc1

emission maximum (in ClCCl): 485 nm
SMILES: O=C1c2ccccc2-c2nc3c(F)c(F)c(F)c(F)c3n21

emission maximum (in C1CCOC1): 468 nm
SMILES: N#C/C(=C\c1ccc(C=C(c2ccccc2)c2ccccc2)cc1)c1ccccc1

emission maximum (in O): 420 nm
SMILES: Fc1cc(F)c2cc3cccc[n+]3cc2c1

emission maximum (in CO): 586 nm
SMILES: CC1=CC(/C=C/c2ccc(OCCCN=[N+]=[N-])cc2)=[N+]2C1=C(c1ccc(N3CCCCC3)cc1)c1c(C)cc(C)n1[B-]2(F)F

emission maximum (in CCCCCC): 377 nm
emission maximum (in CO): 377 nm
emission maximum (in ClCCl): 378 nm
SMILES: Cc1ccc2ccc3cccc4ccc1c2c34

emission maximum (in O): 398 nm
SMILES: Nc1ccc2ccc(O)cc2c1

emission maximum (in CC#N): 522 nm
SMILES: N#C/C(=C\c1ccc(C#N)cc1)c1nc(-c2ccc(Cl)cc2)c(-c2ccccc2)s1

emission maximum (in CO): 574 nm
SMILES: C#CCOc1ccc(/C=C/C2=[N+]3C(=C(c4ccccc4)c4c(C)cc(C)n4[B-]3(F)F)C(C)=C2)cc1

emission maximum (in ClCCl): 635 nm
SMILES: CCCCN1C(=O)C2=C(c3ccc(-c4ccc5c(c4)C(C)(C)c4ccccc4-5)cc3)[N-]C(=O)C2=C1c1ccc(-c2ccc3c(c2)C(C)(C)c2ccccc2-3)cc1

emission maximum (in C1CCOC1): 460 nm
SMILES: COc1cc2c(cc1-c1ccc(C#N)cc1)Cc1c3c(c4c(c1-2)-c1cc(OC)c(-c2ccc(C#N)cc2)cc1C4)C(=O)N(CCC(C)C)C3=O

emission maximum (in ClCCl): 403 nm
SMILES: COc1ccc(-c2ccc(-c3cc(-c4ccccn4)nc(-c4ccccn4)c3)cc2)cc1

emission maximum (in ClCCl): 420 nm
SMILES: COc1ccc(-c2ccc(C(=O)NC(C)(C)C)c3c2ccc2c4ccccc4c4ccccc4c23)cc1

emission maximum (in ClCCl): 424 nm
SMILES: CC(=O)c1c(N[C@@H](CS)C(=O)O)c2ccc(N(C)C)cc2oc1=O

emission maximum (in ClCCl): 520 nm
SMILES: Cn1cc(-c2nc3ccccc3nc2C#Cc2ccc(C#N)cc2)c2ccccc21

emission maximum (in CO): 620 nm
emission maximum (in O): 621 nm
SMILES: CN(C)c1ccc2c(c1)C(C)(C)C1=CC(=[N+](C)C)C=CC1=C2

emission maximum (in C1COCCO1): 561.95 nm
SMILES: CCC12C(=C3C(=C4c5ccc(-c6ccc(C(C)=O)cc6)cc5S(=O)(=O)C41CC)C(F)(F)C(F)(F)C3(F)F)c1ccc(-c3ccc(C(C)=O)cc3)cc1S2(=O)=O (stereo not given)

emission maximum (in C1CCCCC1): 425 nm
SMILES: CCCC1(CCC)c2cc(-c3ccc(-c4ccc(OC)cc4)o3)ccc2-c2ccc(-c3ccc(-c4ccc(OC)cc4)o3)cc21

emission maximum (in CCO): 452 nm
SMILES: Cc1c(COC(=O)Cc2c[nH]c3ccccc23)n2c(OCC(=O)Cc3c[nH]c4ccccc34)c(C)c(=O)n2c1=O
